Test results as given in PMC8955307, “Nucleobase-Derived Nitrones: Synthesis and Antioxidant and Neuroprotective Activities in an In Vitro Model of Ischemia–Reperfusion” (International Journal of Molecular Sciences, 2022).

Tests used:
[1] = Reducing ability: interaction with DPPH; details: tested at 100 µM
[2] = biological target: T1, Soybean Lipoxygenase (SLOX) (Glycine max, UniProt P08170); assay: In vitro inhibition of soybean lipoxygenase (UV absorbance-based enzyme assay); format: biochemical; details: for IC50: soybean LOX, sodium linoleate substrate, pH 9
T1 sequence (P08170 1-839): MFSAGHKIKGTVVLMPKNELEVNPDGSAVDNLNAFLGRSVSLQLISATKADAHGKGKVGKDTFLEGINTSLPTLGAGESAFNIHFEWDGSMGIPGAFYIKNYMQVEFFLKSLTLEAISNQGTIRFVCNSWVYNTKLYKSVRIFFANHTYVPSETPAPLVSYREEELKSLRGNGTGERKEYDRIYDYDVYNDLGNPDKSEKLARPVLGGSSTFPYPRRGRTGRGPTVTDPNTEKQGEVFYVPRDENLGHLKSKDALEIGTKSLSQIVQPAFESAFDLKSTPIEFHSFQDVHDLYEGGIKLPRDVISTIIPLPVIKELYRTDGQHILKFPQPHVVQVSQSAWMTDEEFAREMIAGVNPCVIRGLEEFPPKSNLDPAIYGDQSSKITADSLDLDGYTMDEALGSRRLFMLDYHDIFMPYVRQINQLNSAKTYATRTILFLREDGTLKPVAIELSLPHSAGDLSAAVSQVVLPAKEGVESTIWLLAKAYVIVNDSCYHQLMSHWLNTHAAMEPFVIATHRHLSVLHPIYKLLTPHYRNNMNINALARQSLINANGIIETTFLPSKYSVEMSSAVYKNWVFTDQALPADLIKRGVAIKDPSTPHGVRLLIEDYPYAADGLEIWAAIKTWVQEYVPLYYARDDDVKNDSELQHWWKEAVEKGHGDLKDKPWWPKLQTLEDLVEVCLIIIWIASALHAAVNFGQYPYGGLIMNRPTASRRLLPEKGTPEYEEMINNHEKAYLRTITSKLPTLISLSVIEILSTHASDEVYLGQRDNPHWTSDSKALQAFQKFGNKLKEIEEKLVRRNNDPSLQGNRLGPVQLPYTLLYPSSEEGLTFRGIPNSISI
Method: The experimental conditions followed our previously reported protocol. Sodium linoleate was used as a substrate (0.1 mM) with 0.2 mL of the saline solution of SLOX (1/9 × 10^−4 w/v) in the Tris buffer pH 9.

[3] = Inhibition of lipid peroxidation (ILPO), AAPH protocol with sodium linoleate; details: tested at 100 µM
Method: The reactants consisting of 10 µL (16 mM) sodium linoleate, 10 µL of the tested nitrones in DMSO (final concentration 100 µM), 50 µL of AAPH ([…]) as a free radical initiator, 930 µL phosphate buffer pH 7.4 (0.05 M) at 37 °C under air, were mixed and the reaction’s result (as absorbance value) was recorded at 234 nm in comparison to PBN as a reference.

[4] = Hydroxyl radical scavenging (competition with DMSO); details: tested at 100 µM
Method: The competition of the tested nitrones (100 µM) with DMSO (33 mM) in the phosphate buffer (50 mM), pH 7.4, was used. The hydroxyl radicals were generated by the Fe^3+/ascorbic acid system (EDTA 0.1 mM, Fe^3+ 167 µM, ascorbic acid 10 mM), and the samples were incubated at 37 °C/30 min. A 17% w/v solution of CCl3CO2H was used to stop the radical propagation. The percentage scavenging activity was compared to Trolox used as a reference.

[5] = tested on: human neuroblastoma SH-SY5Y cells; assay: Basal neurotoxicity: cell viability under basal conditions; format: cell-based
Method: Cell viability measurements were carried out in human neuroblastoma cells SHSY5Y using 96-well culture plates, containing about 0.5–1 × 10^5 cells/well, after the OGD-R24h or control treatment including 0.01–1000 µM of the different testing compounds (nitrones 9a–g, PBN, and NAC), utilizing the Cell Proliferation Kit II (XTT), Sigma Aldrich, Madrid, Spain, which determines the culture’s metabolic capacity, as described in [21, 22]. XTT solution (0.3 mg/mL final concentration) was added to the seeded cells, incubated for 2 h at 37 °C with 5% CO2 and 95% air (v/v), and a spectrophotometer reader (Biotek Power-Wave XS microplate-reader (BioTek Instruments, Madrid, Spain) was used to register the absorbance at 450 nm (reference 650 nm) of the soluble formazan product generated. 100% viability was set by control normoxic cells treated with medium only, and control cells were added 0.001–1% DMSO in every assay.

Row | SMILES | IC50 [2] | melting point | LOX (%) inhibition ([2]; tested at 100 µM) | DPPH (%) [1] | ILPO (%) [3] | OH (%) scavenging [4] | Neurotoxic effects at basal level (cell viability) [5]
1 | Cc1cn(C/C=[N+](/C)[O-])c(=O)[nH]c1=O [9b] | 79 µM | 182 °C (dec.) | – | 11% | 55% | 73% | –
2 | C/[N+]([O-])=C/Cn1cc(Br)c(=O)[nH]c1=O [9d] | 35 µM | 180 °C (dec.) | – | 6% | – | 90% | –
3 | C/[N+]([O-])=C/Cn1cc(Cl)c(=O)[nH]c1=O [9e] | 65 µM | 180 °C (dec.) | – | 13% | 68% | 87% | –

More lines, main results first:

Row | IC50 [2] | melting point | LOX (%) inhibition ([2]; tested at 100 µM) | SMILES | DPPH (%) [1] | ILPO (%) [3] | OH (%) scavenging [4] | Neurotoxic effects at basal level (cell viability) [5]
4 | 31 µM | 211 °C (dec.) | – | C/[N+]([O-])=C/Cn1cnc2c(N)ncnc21 [9f] | 9% | – | 66% | –
5 | 57.5 µM | – | – | C/[N+]([O-])=C/Cn1cc(Br)c(=O)n(C/C=[N+](/C)[O-])c1=O [9i] | 76% | 71% | inactive and No | –
6 | – | – | 23% | CC(C)(C)[N+]([O-])=Cc1ccccc1 [PBN, α-phenyl-N-tert-butylnitrone, reference compound] | – | 11% | no | did not show any neurotoxic effects
